{"source": "patent US20040259942A1", "about": "“Modulation of stat activity” (priority 2001, published 2004)", "key": {"[1]": {"tested_on": "STAT3", "test": "Weak constitutive STAT3 DNA-binding in serum-starved cells (EMSA supershift)", "type": "cell-based, human"}, "[2]": {"tested_on": "STAT3", "test": "Serum-induced STAT3 tyrosine phosphorylation (immunoblot)", "type": "cell-based, human", "conditions": "BR293 cells; full medium, 2 hour time course; AG490 pre-treatment", "experimental": "(§1) For immunoprecipitation and immunoblotting experiments, cells were grown to confluence in 10 cm dishes and maintained in full medium or starved in serum-free medium overnight before the application of appropriate stimuli. Lysates were prepared in TBSN buffer (50 mM Tris-HCl pH7.5, 150 mM NaCl, 1 mM EDTA, 1% NP-40) supplemented with protease inhibitors (1 mM Na3 VO4, 10 mM Na4P2O7, 10 mM NaF, 5 mM EGTA, 10 mM Benzamidine, 0.2 mM PMSF and 1 μg/ml each of leupeptin, aprotinin, pepstatin). Lysates were cleared by centrifugation at 16,000×g for 10 minutes and used directly for immunoprecipitations or stored at −20° C. for further use.\n(§2) Equal amounts of lysates were incubated with the appropriate antibody for 2 hours at 4° C.\n(§3) Immune complexes were then allowed to bind to protein A-Sepharose beads for 1 hour at 4° C. and collected by centrifugation. Immunoprecipitates were washed three times in 100 mM Tris-HC1 pH 7.5, 100 nM NaCl, 1 mM EDTA, 0.1 mM PMSF, 0.5% NP-40. Thereafter, samples were taken up in sodium dodecyl sulphate (SDS) loading buffer and boiled for 5 min.\nSamples were separated by electrophoresis through 6% polyacrylamide-SDS gels. Proteins were then transferred to polyvinylidene difluoride (PVDF) membranes with a semi-dry electroblotting apparatus. The membranes were incubated with appropriate primary antibodies at room temperature for 1 hour or 4° C. overnight according to suppliers' instructions, washed and stained with horseradish peroxidase-coupled secondary antibodies. The membranes were developed with an enhanced chemiluminescence kit (Amersham).\nas §1, with “Na3VO4,” for “Na3 VO4,”, “aprotinin and” for “aprotinin,”, “use. AG490 was purchased from Sigma; PD153035 was provided by Glaxo-Smith-Kline and PD168393 was purchased from Calbiochem.” for “use.”\nas §3, with “Equal amounts of lysates were incubated with the appropriate antibody for 2 hours at 4° C. Immune” for “Immune”, “in 10” for “in 100”, “mM Tris-HCl” for “mM Tris-HC1”, “100 mM” for “100 nM”"}, "[3]": {"target": "T1, JAK2 (Homo sapiens, UniProt O60674)", "T1 construct": "endogenous in cells; host or cells: BR293", "test": "Serum-induced JAK2 tyrosine phosphorylation (immunoblot)", "type": "cell-based", "conditions": "BR293 cells; 2 hour time course; AG490 pre-treatment", "experimental": "as §1, §2, §3\n(§4) Samples were separated by electrophoresis through 6% polyacrylamide-SDS gels. Proteins were then transferred to polyvinylidene difluoride (PVDF) membranes with a semi-dry electroblotting apparatus. […]"}, "[4]": {"tested_on": "STAT3", "test": "STAT3 activation by conditioned medium (CM) from serum-stimulated BR293 cells", "type": "cell-based, human", "conditions": "serum-starved BR293 cells treated with AG490", "experimental": "OdDHL blocks the autocrine release of mitogens from BC cells (a) Equal numbers of BR293 cells were cultured in MEM alone, serum-free MEM conditioned by serum-stimulated BR293 cells for 2 hours, or the same supplemented with 5% FCS, as indicated. After 24 hours [^3H]-thymidine was added to the medium. After a further 18 hours, cells were harvested and analysed for incorporation of ^3H. Error bars denote SD (n=4). (b) BR293 cells were serum-starved (lane 1) or starved and stimulated with 10% FCS for 2 hours directly (lane 2) or after pretreatment with α-amanitin (1004/ml) for 2.5 hours (lane 3) or actinomycin D ([…]) for 10 min (lane 4). […] Cell lysates were prepared and analysed by Western blotting as described in the legend to FIG. 1a. […] Lysates were prepared from all the cells and analysed by Western blotting as described in the legend to FIG. 1a.\nSerum-starved BR293 cells were stimulated with 10% foetal calf serum (FCS) and, after 2 hours, half the cells were harvested while the other cells were washed thoroughly and incubated for a further 4 hours in serum-free medium. […] Nuclear extracts were made from all the cells and analysed for STAT DNA-binding. […]"}, "[5]": {"tested_on": "BR293 cells", "test": "Cell proliferation assay (cell counting)", "type": "cell-based, human", "conditions": "for effect on proliferation over 48 hours: PD 153035 100 nM, PD 168393 2 μM", "experimental": "(§5) Equal numbers of BR293 and MDA-MB-468 cells were seeded in MEM containing 10% FCS into 10 cm dishes. […]. For the 48 time points, fresh medium containing the appropriate inhibitor was applied to the cells after 24 hours. Controls were allowed to grow for 48 hours in the absence of inhibitor. Thereafter, all the cells were washed twice with ice cold PBS, harvested and counted under a phase-contrast microscope. Values are expressed as averages+S.D. (n=3).\n(§6) Equal numbers of BR293, MCF-10F, MCF-7, MDA-MB-468, HKEK293 and COS1 cells were seeded in the appropriate growth medium into 10 cm dishes. Cells were allowed to grow in the presence of various concentrations of OdDHL or OHHL for 24 or 48 hours. For the 48-hour time points, fresh medium containing the appropriate inhibitor was applied to the cells after 24 hours. Controls were allowed to grow for 48 hours in the absence of inhibitor. Thereafter, all the cells were washed twice with ice cold PBS, harvested and counted under a phase-contrast microscope. Values are expressed as averages ±S.D. (n=3)."}, "[6]": {"tested_on": "MDA-MB-468 cells", "test": "Cell proliferation assay (cell counting)", "type": "cell-based, human", "conditions": "for effect on proliferation over 48 hours: PD 153035 100 nM, PD 168393 2 μM", "experimental": "as §5, §6"}, "[7]": {"tested_on": "MCF-10F cells", "conditions": "previously shown (refs 5, 11); cited from earlier work"}, "[8]": {"tested_on": "BC cell", "conditions": "ref (7); cited from earlier work"}, "[9]": {"tested_on": "ErbB2", "test": "Tyrosine phosphorylation of ErbB2: immunoprecipitation and anti-phosphotyrosine immunoblot", "type": "cell-based, human", "conditions": "EGF", "experimental": "as §1, §2, §3, §4"}, "[10]": {"tested_on": "ErbB3", "test": "Tyrosine phosphorylation of ErbB3: immunoprecipitation and anti-phosphotyrosine immunoblot", "type": "cell-based, human", "experimental": "as §1, §2, §3, §4"}}, "data": [{"compound": "N#C/C(=C/c1ccc(O)c(O)c1)C(=O)NCc1ccccc1", "note": "[AG490]", "values": [{"measurement": "weak STAT3 DNA-binding", "setting": "[1]; BT20 and MDA-MB-468 cells, 100 μM", "value": "unaffected"}, {"measurement": "serum-stimulated STAT3 tyrosine phosphorylation", "setting": "[2]", "value": "blocked"}, {"measurement": "serum-stimulated tyrosine phosphorylation of JAK2", "setting": "[3]", "value": "blocked"}, {"measurement": "STAT3 activation by conditioned medium from BR293 cells", "setting": "[4]", "value": "no inhibition was observed"}, {"measurement": "reduction of cell proliferation", "setting": "[5]; AG490 100 μM, over 48 hours", "value": "> 75", "unit": "%"}, {"measurement": "reduction of cell proliferation", "setting": "[6]; AG490 100 μM, over 48 hours", "value": "> 75", "unit": "%"}, {"measurement": "sensitivity to JAK inhibitor", "setting": "[7]", "value": "insensitive"}, {"measurement": "BC cell proliferation", "setting": "[8]", "value": "inhibits BC cell proliferation"}]}, {"compound": "COc1cc2ncnc(Nc3cccc(Br)c3)c2cc1OC", "note": "[PD 153035]", "values": [{"measurement": "weak, heterogeneous DNA-binding by STAT3 in extracts from serum-starved cells", "setting": "[1]; MDA-MB-468 cells, 100 nM", "value": "had no effect"}, {"measurement": "effect on proliferation over 48 hours", "setting": "[5]", "value": "no effect on their proliferation"}, {"measurement": "effect on proliferation over 48 hours", "setting": "[6]", "value": "no effect on their proliferation"}]}, {"compound": "C=CC(=O)Nc1ccc2ncnc(Nc3cccc(Br)c3)c2c1", "note": "[PD 168393]", "values": [{"measurement": "effect on proliferation over 48 hours", "setting": "[5]", "value": "no effect on their proliferation"}, {"measurement": "effect on proliferation over 48 hours", "setting": "[6]", "value": "no effect on their proliferation"}]}, {"compound": "EGF: Epidermal Growth Factor, used as stimulus", "values": [{"measurement": "stimulation of ErbB2 tyrosine phosphorylation", "setting": "[9]; BR293 cells", "value": 3.2, "unit": "fold"}, {"measurement": "stimulation of ErbB2 tyrosine phosphorylation", "setting": "[9]; T47D cells", "value": 5.7, "unit": "fold"}, {"measurement": "induction of ErbB3 tyrosine phosphorylation", "setting": "[10]; cell line co-expressing ErbB1, first value printed (cell line not given)", "value": 6.6, "unit": "fold"}, {"measurement": "induction of ErbB3 tyrosine phosphorylation", "setting": "[10]; cell line co-expressing ErbB1, second value printed (cell line not given)", "value": 6.3, "unit": "fold"}]}]}
